A word on the IC50: it is the point on the concentration scale where inhibition reaches its midpoint. A lower IC50 goes with higher potency.

Some results are limits rather than exact numbers.

The results in this text go back to US20250353842A1, “BICYCLIC AMINE CDK12 INHIBITORS” (Incyte Corporation, priority 2022, published 2025).

Sequence of CDK12 complexed with Cyclin K (Q9NYV4 whole entry): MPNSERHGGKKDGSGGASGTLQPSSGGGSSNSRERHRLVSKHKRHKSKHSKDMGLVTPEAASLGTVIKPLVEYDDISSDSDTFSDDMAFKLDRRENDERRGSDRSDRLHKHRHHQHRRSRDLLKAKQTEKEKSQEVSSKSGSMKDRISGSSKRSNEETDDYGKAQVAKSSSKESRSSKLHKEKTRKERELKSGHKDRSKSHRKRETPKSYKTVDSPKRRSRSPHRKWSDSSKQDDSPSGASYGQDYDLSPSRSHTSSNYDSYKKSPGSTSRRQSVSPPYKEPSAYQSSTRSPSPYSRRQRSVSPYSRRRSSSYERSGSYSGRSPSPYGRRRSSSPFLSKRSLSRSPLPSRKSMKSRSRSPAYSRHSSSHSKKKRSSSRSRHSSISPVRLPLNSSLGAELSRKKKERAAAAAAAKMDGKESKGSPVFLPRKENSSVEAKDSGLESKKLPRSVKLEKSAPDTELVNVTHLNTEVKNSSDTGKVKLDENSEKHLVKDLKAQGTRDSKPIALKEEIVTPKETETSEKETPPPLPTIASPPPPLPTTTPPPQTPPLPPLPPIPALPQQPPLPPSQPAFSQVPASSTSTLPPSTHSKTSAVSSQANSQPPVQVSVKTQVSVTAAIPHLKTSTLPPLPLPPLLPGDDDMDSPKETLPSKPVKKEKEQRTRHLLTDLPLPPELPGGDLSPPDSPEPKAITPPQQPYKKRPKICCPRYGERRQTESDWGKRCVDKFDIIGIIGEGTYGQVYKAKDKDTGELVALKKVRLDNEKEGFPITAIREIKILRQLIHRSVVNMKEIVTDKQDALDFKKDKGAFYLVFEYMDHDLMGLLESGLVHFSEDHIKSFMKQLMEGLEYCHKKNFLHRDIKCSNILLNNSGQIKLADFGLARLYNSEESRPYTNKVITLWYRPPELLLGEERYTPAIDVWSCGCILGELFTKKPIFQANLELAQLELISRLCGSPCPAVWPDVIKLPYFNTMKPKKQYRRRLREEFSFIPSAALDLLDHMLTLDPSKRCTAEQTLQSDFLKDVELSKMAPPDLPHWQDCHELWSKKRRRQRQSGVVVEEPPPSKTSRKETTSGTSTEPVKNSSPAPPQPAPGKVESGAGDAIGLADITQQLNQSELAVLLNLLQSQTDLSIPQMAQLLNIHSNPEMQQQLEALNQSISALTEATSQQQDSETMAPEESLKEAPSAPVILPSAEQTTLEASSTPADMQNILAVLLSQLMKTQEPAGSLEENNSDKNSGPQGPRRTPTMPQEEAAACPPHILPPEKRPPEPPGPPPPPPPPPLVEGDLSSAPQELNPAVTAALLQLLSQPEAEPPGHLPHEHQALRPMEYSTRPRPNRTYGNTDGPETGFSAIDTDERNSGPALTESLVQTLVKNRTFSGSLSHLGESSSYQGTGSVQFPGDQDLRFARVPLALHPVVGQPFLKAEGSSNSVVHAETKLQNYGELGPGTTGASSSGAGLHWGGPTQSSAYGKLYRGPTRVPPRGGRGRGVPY
Sequence of CDK12 complexed with Cyclin K (O75909 whole entry partner): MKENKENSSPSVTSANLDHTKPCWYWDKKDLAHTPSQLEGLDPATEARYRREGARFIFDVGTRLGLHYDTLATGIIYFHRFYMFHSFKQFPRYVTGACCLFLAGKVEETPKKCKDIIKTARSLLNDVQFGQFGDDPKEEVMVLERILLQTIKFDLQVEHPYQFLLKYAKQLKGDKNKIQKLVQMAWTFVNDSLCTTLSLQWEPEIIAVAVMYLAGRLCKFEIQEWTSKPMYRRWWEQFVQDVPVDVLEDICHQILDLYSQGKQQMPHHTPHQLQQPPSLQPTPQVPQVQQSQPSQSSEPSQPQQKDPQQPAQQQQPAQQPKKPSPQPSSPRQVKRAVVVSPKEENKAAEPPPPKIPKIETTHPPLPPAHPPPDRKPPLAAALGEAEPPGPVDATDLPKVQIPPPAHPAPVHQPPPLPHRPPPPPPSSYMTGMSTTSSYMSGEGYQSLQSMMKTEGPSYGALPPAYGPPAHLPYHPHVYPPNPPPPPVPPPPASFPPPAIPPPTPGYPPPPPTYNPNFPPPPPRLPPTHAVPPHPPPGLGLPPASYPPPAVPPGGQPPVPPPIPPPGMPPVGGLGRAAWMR

In this assay the target is CDK12 complexed with Cyclin K (Homo sapiens (Human), UniProt Q9NYV4). Briefly: CDK enzymatic assay (HTRF, LANCE Ultra kinase assay). The conditions noted are these: 60 minutes pre-incubation, 1 mM ATP. It is filed as biochemical. Summed up:
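GST-tagged human CDK12 co-expressed with full-length Cyclin K in baculovirus, pre-incubated 60 min with compound, then 1 mM ATP and 50 nM ULight-4E-BP1 peptide (final) in pH 7.5 HEPES buffer for 60-90 min at room temperature. EDTA/Eu-anti-phospho-4E-BP1 stop; 665/620 nm HTRF ratio normalized to DMSO and no-enzyme controls, IC50 from 3- or 4-parameter fit.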
On the technique in general: Time-resolved FRET reads energy transfer from a long-lived donor to a nearby acceptor.
The compound `CC(O)Cn1cc(-c2nc(N[C@@H]3CCC[C@H](n4cnc5cc(C#N)cnc54)C3)ncc2C#N)cn1` (stereo partly drawn) [Example 67, 3-((1S,3R)-3-((5-Cyano-4-(1-(2-hydroxypropyl)-1H-pyrazol-4-yl)pyrimidin-2-yl)amino)cyclohexyl)-3H-imidazo[4,5-b]pyridine-6-carbonitrile] returned an IC50 of under 50 nM. `N#Cc1cnc2c(c1)ncn2[C@H]1CCC[C@@H](Nc2ncc(C#N)c(-c3cnn(CCO)c3)n2)C1` [Example 68, 3-((1S,3R)-3-((5-Cyano-4-(1-(2-hydroxyethyl)-1H-pyrazol-4-yl)pyrimidin-2-yl)amino)cyclohexyl)-3H-imidazo[4,5-b]pyridine-6-carbonitrile] showed a concentration for half-maximal inhibition (IC50) of under 50 nM. `N#Cc1cnc2c(c1)ncn2[C@H]1CCC[C@@H](Nc2ncc(C#N)c(-c3cnn(CC4CC4)c3)n2)C1` [Example 69, 3-((1S,3R)-3-((5-Cyano-4-(1-(cyclopropylmethyl)-1H-pyrazol-4-yl)pyrimidin-2-yl)amino)cyclohexyl)-3H-imidazo[4,5-b]pyridine-6-carbonitrile] had an IC50 of under 50 nM.

On to `N#Cc1cnc2c(c1)ncn2[C@H]1CCC[C@@H](Nc2ncc(C#N)c(-c3cnn(CCF)c3)n2)C1` [Example 70, 3-((1S,3R)-3-((5-Cyano-4-(1-(2-fluoroethyl)-1H-pyrazol-4-yl)pyrimidin-2-yl)amino)cyclohexyl)-3H-imidazo[4,5-b]pyridine-6-carbonitrile], for which the 50% inhibitory concentration (IC50) was under 50 nM. The compound `N#Cc1cnc2c(c1)ncn2[C@H]1CCC[C@@H](Nc2ncc(C#N)c(-c3cnn(C4CC4)c3)n2)C1` [Example 71, 3-((1S,3R)-3-((5-Cyano-4-(1-cyclopropyl-1H-pyrazol-4-yl)pyrimidin-2-yl)amino)cyclohexyl)-3H-imidazo[4,5-b]pyridine-6-carbonitrile] gave a half-inhibitory concentration (IC50) of under 50 nM. The compound `CC(C)n1cc(-c2nc(N[C@@H]3CCC[C@H](n4cnc5cc(C#N)cnc54)C3)ncc2C#N)cn1` [Example 72, 3-((1S,3R)-3-((5-Cyano-4-(1-isopropyl-1H-pyrazol-4-yl)pyrimidin-2-yl)amino)cyclohexyl)-3H-imidazo[4,5-b]pyridine-6-carbonitrile] came in with an IC50 of under 50 nM. Turning to `CCn1cc(-c2nc(N[C@@H]3CCC[C@H](n4cnc5cc(C#N)cnc54)C3)ncc2C#N)cn1` [Example 73, 3-((1S,3R)-3-((5-Cyano-4-(1-ethyl-1H-pyrazol-4-yl)pyrimidin-2-yl)amino)cyclohexyl)-3H-imidazo[4,5-b]pyridine-6-carbonitrile], the half-maximal inhibitory concentration (IC50) was under 50 nM. Regarding `CC(=O)N1CCN(c2cnc3c(c2)ncn3[C@H]2CCC[C@@H](Nc3ncc(C#N)c(-c4cnn(CC(F)F)c4)n3)C2)CC1` [Example 74, 2-(((1R,3S)-3-(6-(4-Acetylpiperazin-1-yl)-3H-imidazo[4,5-b]pyridin-3-yl)cyclohexyl)amino)-4-(1-(2,2-difluoroethyl)-1H-pyrazol-4-yl)pyrimidine-5-carbonitrile], the IC50 was under 50 nM. Take `CN1CCN(c2cnc3c(c2)ncn3[C@H]2CCC[C@@H](Nc3ncc(C#N)c(-c4cnn(CC(F)F)c4)n3)C2)CC1` [Example 75, 4-(1-(2,2-Difluoroethyl)-1H-pyrazol-4-yl)-2-(((1R,3S)-3-(6-(4-methylpiperazin-1-yl)-3H-imidazo[4,5-b]pyridin-3-yl)cyclohexyl)amino)pyrimidine-5-carbonitrile]: the half-maximal inhibitory concentration (IC50) is under 50 nM. In turn, `N#Cc1cnc(N[C@@H]2CCC[C@H](n3cnc4cc(N5CCOCC5)cnc43)C2)nc1-c1cnn(CC(F)F)c1` [Example 76, 4-(1-(2,2-Difluoroethyl)-1H-pyrazol-4-yl)-2-(((1R,3S)-3-(6-morpholino-3H-imidazo[4,5-b]pyridin-3-yl)cyclohexyl)amino)pyrimidine-5-carbonitrile] returned a 50% inhibitory concentration (IC50) of under 50 nM. With `Cc1ccncc1-c1cnc2c(c1)ncn2[C@H]1CCC[C@@H](Nc2ncc(C#N)c(-c3cnn(CC(F)F)c3)n2)C1` [Example 77, 4-(1-(2,2-Difluoroethyl)-1H-pyrazol-4-yl)-2-(((1R,3S)-3-(6-(4-methylpyridin-3-yl)-3H-imidazo [4,5-b]pyridin-3-yl)cyclohexyl)amino)pyrimidine-5-carbonitrile], the half-maximal inhibitory concentration (IC50) lay within 50 to 500 nM.
